Results as given in US11472843B2, “Malacidins and methods of use” (The Rockefeller University, priority 2017, dated 2022).
Converted amounts (≈) assume the structure as drawn. Like-named read-outs stand apart in the source and are kept apart here.

Tests used:
[1] = tested on: UDP-MurNAc-pentapeptide in MRSA USA300; experiment: UDP-MurNAc-pentapeptide accumulation assay; assay type: cell-based, Staphylococcus aureus; conditions: 10 μg ml^−1, 60 min, UPLC-MS
Protocol: The intracellular accumulation of the cell wall precursor UDP-MurNAc-pentapeptide after treatment of MRSA USA300 with malacidin was assessed as previously described (Schneider et al., […], Antimicrob Agents Ch 53:1610-18). In brief, single colonies of MRSA USA300 were grown in LB media with and without 15 mM CaCl2 to an OD600 nm of 0.6. […] of cells and medium were incubated with a final concentration of 130 μg ml^−1 chloramphenicol for 15 min at 37° C. Antibiotics to be assayed were added at 10 μg ml^−1 and incubated for 60 min at 37° C. Vancomycin, known to form a complex with lipid II, was used as a positive control. Cells were collected by centrifugation, and resuspended in 30 μl dH2O and incubated in boiling water for 15 min. The cell extract was then centrifuged at 14,000 g. Supernatant was analysed for UDP-linked cell wall precursors by a UPLC-MS system. Experiments were performed with biological replicates.

[2] = tested on: Escherichia coli DH5α; experiment: MIC assay, E. coli DH5α; assay type: cell-based
Protocol: (§1) MIC assays were performed in duplicate in 96-well microtiter plates on the basis of the protocol recommended by the Clinical and Laboratory Standards Institute (Cockerill, 2012, Clinical and Laboratory Standards Institute). All presented data are the average of at least three independent assays. Stock solutions of malacidin or daptomycin (2 mg ml^−1 in H2O) were added to the first well in a row and serially diluted (twofold per transfer) across the microtiter plate. CaCl2 was supplemented to media at a final concentration of 15 mM and fetal bovine serum (ATCC) was added to media (1:10) to test the effect of serum. Overnight cultures of bacteria were diluted 5,000-fold, and 50 μl was used as an inoculum in each well. MIC values were determined by visual inspection after 18 h incubation (30° C., static growth). For the enhanced calcium titration experiments, standard MIC assays were performed with methicillin-resistant Staphylococcus aureus (MRSA) PFGE strain type USA300 in media supplemented with CaCl2 at: 25.0, 18.8, 14.1, 7.03, 3.52, 2.50, 1.76, 0.880, 0.440, 0.250 and 0 mM. To assess the effects of monovalent and divalent cations on malacidin activity, standard MIC assays were performed with MRSA USA300 in media supplemented with 15 mM CaCl2, MgCl2, MnCl2, ZnCl2, SrCl2, NaCl and KCl. To evaluate the effects of pulmonary surfactants on activity against a community-acquired pneumonia-causing pathogen, standard MIC assays were performed with Streptococcus pneumoniae TCH8431 in media supplemented with both 15 mM CaCl1 and Survanta (beractant) at a final concentration of 5, 1, 0.5, 0.25 or 0% (volume/volume (v/v) percent).

[3] = tested on: Candida albicans ATCC 1884; experiment: MIC assay, C. albicans; assay type: cell-based; conditions: Candida albicans ATCC 1884
Protocol: as §1

[4] = tested on: E. faecium Com15; experiment: MIC assay, E. faecium Com15; assay type: cell-based, Enterococcus faecium; conditions: Enterococcus faecium Com15
Protocol: as §1

[5] = tested on: S. aureus USA300; experiment: MIC assay, S. aureus USA300 (MRSA); assay type: cell-based, Staphylococcus aureus; conditions: Staphylococcus aureus USA300, β-lactams (Methicillin, Oxacillin, Penicillin)
Protocol: as §1

[6] = tested on: Bacillus subtilis 168 IAI; experiment: MIC assay, B. subtilis; assay type: cell-based; conditions: Bacillus subtilis 168 IAI; read-out: MIC
Protocol: as §1

[7] = tested on: S. aureus COL; experiment: MIC assay, S. aureus COL; assay type: cell-based, Staphylococcus aureus; conditions: Staphylococcus aureus COL; β-lactams; read-out: MIC
Protocol: as §1

[8] = tested on: S. aureus NRS140; experiment: MIC assay, S. aureus NRS140; assay type: cell-based, Staphylococcus aureus; conditions: Staphylococcus aureus NRS140; β-lactams, Erythromycin, Spectinomycin; read-out: MIC
Protocol: as §1

[9] = tested on: S. aureus NRS146; experiment: MIC assay, S. aureus NRS146; assay type: cell-based, Staphylococcus aureus; conditions: NRS 146 / VISA; Staphylococcus aureus NRS146; β-lactams, Vancomycin (VISA); read-out: MIC
Protocol: as §1

[10] = tested on: Salmonella enterica IR 715; experiment: MIC assay, Salmonella enterica; assay type: cell-based
Protocol: as §1

[11] = tested on: Cryptococcus neoformans ATCC 32045; experiment: MIC assay, C. neoformans; assay type: cell-based; conditions: Cryptococcus neoformans ATCC 32045
Protocol: as §1

[12] = tested on: Escherichia coli BAS849; experiment: MIC assay, E. coli BAS849; assay type: cell-based
Protocol: as §1, with “To evaluate the effects of pulmonary surfactants on activity against a community-acquired pneumonia-causing pathogen, standard MIC assays were performed with Streptococcus pneumoniae TCH8431 in media supplemented with both 15 mM CaCl1 and Survanta (beractant) at a final concentration of 5, 1, 0.5, 0.25 or 0% (volume/volume (v/v) percent).” left out

[13] = tested on: Streptococcus pneumoniae TCH8431; conditions: from Silverman et al., 2005; cited from earlier work
[14] = tested on: MRSA USA300; experiment: Membrane leakage assay (SYTOX green); assay type: cell-based, Staphylococcus aureus; conditions: 20 μg ml^−1
Protocol: The effects of malacidin on membrane integrity was assessed using SYTOX green. In brief, single colonies of MRSA USA300 were grown in LB media with and without 15 mM CaCl2 to an OD600 nm of 0.35. Nine hundred microlitres of cells were mixed with 100 μL of 17 μM SYTOX green dye (Thermo Fisher). The resulting mixture was incubated for 5 min at 22° C., and then distributed to a microtiter plate at 50 μl per well. An initial reading of fluorescence pre-antibiotic addition was measured at excitation and emission wavelengths of 488 nm and 523 nm, respectively. Fifty microlitres of antibiotics was added to respective wells at a final concentration of 20 μg ml^−1. Measurements were immediately collected for 10 min. To assess the effects of malacidin on membrane depolarization, similar assays were set up using the membrane potential probe, DiBAC4 (bis-(1,3-dibutylbarbituric acid)trimethine oxonol). Single colonies of MRSA USA300 were grown in LB media with and without 15 mM CaCl2 to an OD600 nm of 0.35. Nine hundred microlitres of cells were mixed with 100 μl of 20 μg ml DiBAC4dye (Thermo Fisher). The resulting mixture was incubated for 5 min at 22° C., and then distributed to a microtiter plate at 50 μl per well. An initial reading of fluorescence pre-antibiotic addition was measured at excitation and emission wavelengths of 492 nm and 515 nm, respectively. Fifty microlitres of antibiotics was added to respective wells at a final concentration of 20 μg ml^−1. Measurements were immediately collected for 10 min. Representative examples from three technical replicates are shown.

[15] = tested on: Streptococcus pneumoniae TCH8431; experiment: MIC assay, S. pneumoniae; assay type: cell-based; conditions: Streptococcus pneumoniae TCH8431; read-out: MIC
Protocol: as §1

[16] = tested on: Klebsiella pneumonia ATCC 10031; experiment: MIC assay, Klebsiella pneumonia; assay type: cell-based
Protocol: as §1

[17] = tested on: Acinetobacter baumannii ATCC 17978; experiment: MIC assay, A. baumannii; assay type: cell-based
Protocol: as §1

[18] = tested on: S. aureus BAA-42; experiment: MIC assay, S. aureus BAA-42; assay type: cell-based, Staphylococcus aureus; conditions: BAA42; Staphylococcus aureus BAA-42; β-lactams; read-out: MIC
Protocol: as §1

[19] = tested on: E. faecium VRE; experiment: MIC assay, E. faecium VRE; assay type: cell-based, Enterococcus faecium; conditions: Enterococcus faecium VRE; Vancomycin (VRE); read-out: MIC
Protocol: as §1

[20] = tested on: S. aureus NRS100; experiment: MIC assay, S. aureus NRS100; assay type: cell-based, Staphylococcus aureus; conditions: Staphylococcus aureus NRS100; β-lactams, Tetracycline; read-out: MIC
Protocol: as §1

[21] = tested on: Pseudomonas aeruginosa PAO1; experiment: MIC assay, P. aeruginosa; assay type: cell-based
Protocol: as §1

[22] = tested on: S. aureus NRS108; experiment: MIC assay, S. aureus NRS108; assay type: cell-based, Staphylococcus aureus; conditions: Staphylococcus aureus NRS108; β-lactams, Gentamicin, Kanamycin; read-out: MIC
Protocol: as §1

CN[C@H](CC(C)C)C(=O)N[C@H]1C(=O)N[C@@H](CC(N)=O)C(=O)N[C@H]2C(=O)N[C@H]3C(=O)N[C@H](C(=O)N[C@H](C(=O)O)c4cc(O)cc(O)c4-c4cc3ccc4O)[C@H](O)c3ccc(c(Cl)c3)Oc3cc2cc(c3O[C@@H]2O[C@H](CO)[C@@H](O)[C@H](O)[C@H]2O[C@H]2C[C@](C)(N)[C@H](O)[C@H](C)O2)Oc2ccc(cc2Cl)[C@H]1O [vancomycin, reference compound]
Accumulation of cell wall intermediate UDP-MurNAc-pentapeptide [1]: accumulation of the cell wall intermediate UDP-MurNAc-pentapeptide

CCCCCCCCCC(=O)N[C@@H](Cc1c[nH]c2ccccc12)C(=O)N[C@H](CC(N)=O)C(=O)N[C@@H](CC(=O)O)C(=O)N[C@@H]1C(=O)NCC(=O)N[C@@H](CCCN)C(=O)N[C@@H](CC(=O)O)C(=O)N[C@H](C)C(=O)N[C@@H](CC(=O)O)C(=O)NCC(=O)N[C@H](CO)C(=O)N[C@@H]([C@H](C)CC(=O)O)C(=O)N[C@@H](CC(=O)c2ccccc2N)C(=O)O[C@@H]1C [Daptomycin, daptomycin, reference compound]
MIC ([2]; read-out: MIC): > 100 µg/mL | MIC ([3]; ATCC1884, read-out: MIC): > 100 µg/mL | MIC ([4]; read-out: MIC): 0.4 to 2 µg/mL (≈ 0.247 to 1.23 µM) | MIC ([5]; read-out: MIC): 0.2 to 0.8 µg/mL (≈ 0.123 to 0.494 µM) | MIC [6]: 0.2 to 0.4 µg/mL (≈ 0.123 to 0.247 µM) | MIC [7]: 0.2 to 0.8 µg/mL (≈ 0.123 to 0.494 µM) | MIC [8]: 0.2 to 0.8 µg/mL (≈ 0.123 to 0.494 µM) | MIC [9]: 0.2 to 0.8 µg/mL (≈ 0.123 to 0.494 µM) | MIC ([10]; IR715, read-out: MIC): > 100 µg/mL | MIC ([11]; ATCC32045, read-out: MIC): > 100 µg/mL | MIC [12]: 50 to 100 µg/mL (≈ 30.9 to 61.7 µM) | Activity in the presence of pulmonary surfactants [13]: loss of activity | Membrane leakage (SYTOX green or DiBAC4) ([14]; absence of calcium supplementation): No membrane leakage | Membrane leakage (SYTOX green fluorescence) ([14]; with calcium (15 mM CaCl2)): rapid increase in fluorescence | MIC [15]: 0.1 to 0.2 µg/mL (≈ 0.0617 to 0.123 µM) | MIC ([16]; Klebsiella pneumoniae, ATCC10031, read-out: MIC): > 100 µg/mL | MIC ([17]; ATCC17978, range of at least three independent experiments, read-out: MIC): > 100 µg/mL | MIC [18]: 0.2 to 0.8 µg/mL (≈ 0.123 to 0.494 µM) | MIC [19]: 0.4 to 2 µg/mL (≈ 0.247 to 1.23 µM) | MIC [20]: 0.2 to 0.8 µg/mL (≈ 0.123 to 0.494 µM) | MIC ([21]; read-out: MIC): > 100 µg/mL | MIC [22]: 0.2 to 0.8 µg/mL (≈ 0.123 to 0.494 µM)

malacidin B
MIC [2]: >100 µg/mL | MIC [3]: >100 µg/mL | MIC [4]: 0.8 to 2.0 µg/mL | MIC [5]: 0.4 to 0.8 µg/mL | MIC [10]: >100 µg/mL | MIC [11]: >100 µg/mL | MIC [16]: >100 µg/mL | MIC ([17]; range of at least three independent experiments): >100 µg/mL | MIC [21]: >100 µg/mL
